target: T1, GR (Homo sapiens, UniProt P04150); assay: In Vitro GR Luciferase Reporter Assay (antagonist mode, CHO-K1-GR-MMTV-Luc reporter cells); assay type: cell-based; conditions: antagonist mode, 10 nM Dexamethasone
T1 construct: expressed in transfected cells; host or cells: CHO-K1
T1 sequence (P04150 1-777): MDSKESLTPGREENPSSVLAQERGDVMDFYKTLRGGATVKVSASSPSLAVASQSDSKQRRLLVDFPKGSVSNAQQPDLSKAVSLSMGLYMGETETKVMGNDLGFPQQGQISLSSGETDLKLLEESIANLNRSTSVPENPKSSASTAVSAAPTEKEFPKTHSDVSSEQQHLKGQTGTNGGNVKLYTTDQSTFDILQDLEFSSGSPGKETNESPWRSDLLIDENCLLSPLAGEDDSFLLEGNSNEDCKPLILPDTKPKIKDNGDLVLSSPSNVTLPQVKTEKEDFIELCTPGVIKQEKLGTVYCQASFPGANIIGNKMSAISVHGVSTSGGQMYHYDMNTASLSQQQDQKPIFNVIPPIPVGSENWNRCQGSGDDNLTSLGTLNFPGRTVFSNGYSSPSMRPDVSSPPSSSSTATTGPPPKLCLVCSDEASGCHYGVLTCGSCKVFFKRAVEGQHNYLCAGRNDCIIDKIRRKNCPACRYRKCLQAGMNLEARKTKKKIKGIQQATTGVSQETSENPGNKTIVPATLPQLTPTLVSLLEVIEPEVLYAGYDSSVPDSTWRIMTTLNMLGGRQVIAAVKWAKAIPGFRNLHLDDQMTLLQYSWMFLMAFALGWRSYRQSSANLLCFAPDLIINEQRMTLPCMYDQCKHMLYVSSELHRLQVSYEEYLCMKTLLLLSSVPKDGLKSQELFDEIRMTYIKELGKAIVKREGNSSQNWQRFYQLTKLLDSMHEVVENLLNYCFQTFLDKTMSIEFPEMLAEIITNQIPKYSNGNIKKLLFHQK
Method in brief: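 Antagonist mode: compounds (8 serial 1:5 dilutions) added to GR-MMTV-luciferase CHO-K1 reporter cells co-exposed to 10 nM dexamethasone final, in phenol red-free DMEM plus 10% CSS. After roughly 18-24 h at 37° C, OneGlo luminescence read and IC50 calculated.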

IC50, ≤ 100 nM:
CN([C@H]1CCC2=Cc3c(cnn3-c3ccc(F)cc3)C[C@]2(C(=O)c2ccc(C3CC3)cn2)C1)S(=O)(=O)c1ccc(Cl)cc1 [Example 146, 4-chloro-N-((4aS,6S)-4a-(5-cyclopropylpicolinoyl)-1-(4-fluorophenyl)-4,4a,5,6,7,8-hexahydro-1H-benzo[f]indazol-6-yl)-N-methylbenzenesulfonamide]
Cn1ccc(S(=O)(=O)N(C2CC2)[C@H]2CCC3=Cc4c(cnn4-c4ccc(F)cc4)C[C@]3(C(=O)c3nccs3)C2)n1 [Example 147, N-cyclopropyl-N-((4aS,6S)-1-(4-fluorophenyl)-4a-(thiazole-2-carbonyl)-4,4a,5,6,7,8-hexahydro-1H-benzo[f]indazol-6-yl)-1-methyl-1H-pyrazole-3-sulfonamide]
CN([C@H]1CCC2=Cc3c(cnn3-c3ccc(F)cc3)C[C@]2(C(=O)c2ncc(C3CC3)s2)C1)S(=O)(=O)c1cnn(C)n1 [Example 148, N-((4aS,6S)-4a-(5-cyclopropylthiazole-2-carbonyl)-1-(4-fluorophenyl)-4,4a,5,6,7,8-hexahydro-1H-benzo[f]indazol-6-yl)-N,2-dimethyl-2H-1,2,3-triazole-4-sulfonamide]
CN([C@H]1CCC2=Cc3c(cnn3-c3ccc(F)cc3)C[C@]2(C(=O)c2cc(C3CC3)ccn2)C1)S(=O)(=O)c1cnn(C)n1 [Example 149, N-((4aS,6S)-4a-(4-cyclopropylpicolinoyl)-1-(4-fluorophenyl)-4,4a,5,6,7,8-hexahydro-1H-benzo[f]indazol-6-yl)-N,2-dimethyl-2H-1,2,3-triazole-4-sulfonamide]
CN([C@H]1CCC2=Cc3c(cnn3-c3ccc(F)cc3)C[C@]2(C(=O)c2nc(C3CC3)cs2)C1)S(=O)(=O)c1cnn(C)n1 [Example 150, N-((4aS,6S)-4a-(4-cyclopropylthiazole-2-carbonyl)-1-(4-fluorophenyl)-4,4a,5,6,7,8-hexahydro-1H-benzo[f]indazol-6-yl)-N,2-dimethyl-2H-1,2,3-triazole-4-sulfonamide]
CN([C@H]1CCC2=Cc3c(cnn3-c3ccc(F)cc3)C[C@]2(C(=O)c2ncc(C(F)(F)F)s2)C1)S(=O)(=O)c1cnn(C)n1 [Example 151, N-((4aS,6S)-1-(4-fluorophenyl)-4a-(5-(trifluoromethyl)thiazole-2-carbonyl)-4,4a,5,6,7,8-hexahydro-1H-benzo[f]indazol-6-yl)-N,2-dimethyl-2H-1,2,3-triazole-4-sulfonamide]
Cn1ccc(S(=O)(=O)N(C2CC2)[C@H]2CCC3=Cc4c(cnn4-c4ccc(F)cc4)C[C@]3(C(=O)c3ccc(C4CC4)cn3)C2)n1 [Example 152, N-cyclopropyl-N-((4aS,6S)-4a-(5-cyclopropylpicolinoyl)-1-(4-fluorophenyl)-4,4a,5,6,7,8-hexahydro-1H-benzo[f]indazol-6-yl)-1-methyl-1H-pyrazole-3-sulfonamide]
CCN([C@H]1CCC2=Cc3c(cnn3-c3ccc(F)cc3)C[C@]2(C(=O)c2ncc(C3CC3)s2)C1)S(=O)(=O)c1cnn(C)c1 [Example 154, N-((4aS,6S)-4a-(5-cyclopropylthiazole-2-carbonyl)-1-(4-fluorophenyl)-4,4a,5,6,7,8-hexahydro-1H-benzo[f]indazol-6-yl)-N-ethyl-1-methyl-1H-pyrazole-4-sulfonamide]
CCn1ccc(S(=O)(=O)N(C)[C@H]2CCC3=Cc4c(cnn4-c4ccc(F)cc4)C[C@]3(C(=O)c3cc(C(F)(F)F)ccn3)C2)n1 [Example 157, 1-ethyl-N-((4aS,6S)-1-(4-fluorophenyl)-4a-(4-(trifluoromethyl)picolinoyl)-4,4a,5,6,7,8-hexahydro-1H-benzo[f]indazol-6-yl)-N-methyl-1H-pyrazole-3-sulfonamide]
CCn1cc(S(=O)(=O)N(C2CC2)[C@H]2CCC3=Cc4c(cnn4-c4ccc(F)cc4)C[C@]3(C(=O)c3cc(C(F)(F)F)ccn3)C2)cn1 [Example 158, N-cyclopropyl-1-ethyl-N-((4aS,6S)-1-(4-fluorophenyl)-4a-(4-(trifluoromethyl)picolinoyl)-4,4a,5,6,7,8-hexahydro-1H-benzo[f]indazol-6-yl)-1H-pyrazole-4-sulfonamide]
O=C(c1nccs1)[C@]12Cc3cnn(-c4ccc(F)cc4)c3C=C1CC[C@H](N(C1CC1)S(=O)(=O)c1ccc(F)cc1)C2 [Example 159, N-cyclopropyl-4-fluoro-N-((4aS,6S)-1-(4-fluorophenyl)-4a-(thiazole-2-carbonyl)-4,4a,5,6,7,8-hexahydro-1H-benzo[f]indazol-6-yl)benzenesulfonamide]
CN([C@H]1CCC2=Cc3c(cnn3-c3ccc(F)cc3)C[C@]2(C(=O)c2nccs2)C1)S(=O)(=O)c1cnn(C)n1 [Example 161, N-((4aS,6S)-1-(4-fluorophenyl)-4a-(thiazole-2-carbonyl)-4,4a,5,6,7,8-hexahydro-1H-benzo[f]indazol-6-yl)-N,2-dimethyl-2H-1,2,3-triazole-4-sulfonamide]
CN([C@H]1CCC2=Cc3c(cnn3-c3ccc(F)cc3)C[C@]2(C(=O)c2nccs2)C1)S(=O)(=O)c1cnn(C2CC2)n1 [Example 162, 2-cyclopropyl-N-((4aS,6S)-1-(4-fluorophenyl)-4a-(thiazole-2-carbonyl)-4,4a,5,6,7,8-hexahydro-1H-benzo[f]indazol-6-yl)-N-methyl-2H-1,2,3-triazole-4-sulfonamide]
CN([C@H]1CCC2=Cc3c(cnn3-c3ccc(F)cc3)C[C@]2(C(=O)c2cc(C(F)(F)F)ccn2)C1)S(=O)(=O)c1cn(C)cn1 [Example 163, N-((4aS,6S)-1-(4-fluorophenyl)-4a-(4-(trifluoromethyl)picolinoyl)-4,4a,5,6,7,8-hexahydro-1H-benzo[f]indazol-6-yl)-N,1-dimethyl-1H-imidazole-4-sulfonamide]
CCN([C@H]1CCC2=Cc3c(cnn3-c3ccc(F)cc3)C[C@]2(C(=O)c2nccs2)C1)S(=O)(=O)c1cnn(C(F)F)c1 [Example 165, 1-(difluoromethyl)-N-ethyl-N-((4aS,6S)-1-(4-fluorophenyl)-4a-(thiazole-2-carbonyl)-4,4a,5,6,7,8-hexahydro-1H-benzo[f]indazol-6-yl)-1H-pyrazole-4-sulfonamide]
CCN([C@H]1CCC2=Cc3c(cnn3-c3ccc(F)cc3)C[C@]2(C(=O)c2nccs2)C1)S(=O)(=O)c1ccn(C)n1 [Example 167, N-ethyl-N-((4aS,6S)-1-(4-fluorophenyl)-4a-(thiazole-2-carbonyl)-4,4a,5,6,7,8-hexahydro-1H-benzo[f]indazol-6-yl)-1-methyl-1H-pyrazole-3-sulfonamide]
Cn1cc(S(=O)(=O)N(C2CC2)[C@H]2CCC3=Cc4c(cnn4-c4ccc(F)cc4)C[C@]3(C(=O)c3nccs3)C2)cn1 [Example 168, N-cyclopropyl-N-((4aS,6S)-1-(4-fluorophenyl)-4a-(thiazole-2-carbonyl)-4,4a,5,6,7,8-hexahydro-1H-benzo[f]indazol-6-yl)-1-methyl-1H-pyrazole-4-sulfonamide]
CN([C@H]1CCC2=Cc3c(cnn3-c3ccc(F)cc3)C[C@]2(C(=O)c2cc(C(F)(F)F)ccn2)C1)S(=O)(=O)c1cnnn1C [Example 169, N-((4aS,6S)-1-(4-fluorophenyl)-4a-(4-(trifluoromethyl)picolinoyl)-4,4a,5,6,7,8-hexahydro-1H-benzo[f]indazol-6-yl)-N,1-dimethyl-1H-1,2,3-triazole-5-sulfonamide]
Cn1cc(S(=O)(=O)N(C2CC2)[C@H]2CCC3=Cc4c(cnn4-c4ccc(F)cc4)C[C@]3(C(=O)c3ncc(C4CC4)s3)C2)cn1 [Example 171, N-cyclopropyl-N-((4aS,6S)-4a-(5-cyclopropylthiazole-2-carbonyl)-1-(4-fluorophenyl)-4,4a,5,6,7,8-hexahydro-1H-benzo[f]indazol-6-yl)-1-methyl-1H-pyrazole-4-sulfonamide]
Cn1ccc(S(=O)(=O)N(CC2CC2)[C@H]2CCC3=Cc4c(cnn4-c4ccc(F)cc4)C[C@]3(C(=O)c3nccs3)C2)n1 [Example 172, N-(cyclopropylmethyl)-N-((4aS,6S)-1-(4-fluorophenyl)-4a-(thiazole-2-carbonyl)-4,4a,5,6,7,8-hexahydro-1H-benzo[f]indazol-6-yl)-1-methyl-1H-pyrazole-3-sulfonamide]
Cn1ncc(S(=O)(=O)N(C2CC2)[C@H]2CCC3=Cc4c(cnn4-c4ccc(F)cc4)C[C@]3(C(=O)c3nccs3)C2)n1 [Example 173, N-cyclopropyl-N-((4aS,6S)-1-(4-fluorophenyl)-4a-(thiazole-2-carbonyl)-4,4a,5,6,7,8-hexahydro-1H-benzo[f]indazol-6-yl)-2-methyl-2H-1,2,3-triazole-4-sulfonamide]
